Data on one compound can be found in patent US20250127778A1, “CANCER IMMUNOTHERAPY COMPOSITION CONTAINING INTERACTION INHIBITOR OF STING AND TRIM29 AS ACTIVE INGREDIENT” (SPARK BIOPHARMA, INC, priority 2021, published 2025).

Data set [1] has as its target T1, STING (Mus musculus, UniProt Q3TBT3).
T1 sequence (Q3TBT3 1-378): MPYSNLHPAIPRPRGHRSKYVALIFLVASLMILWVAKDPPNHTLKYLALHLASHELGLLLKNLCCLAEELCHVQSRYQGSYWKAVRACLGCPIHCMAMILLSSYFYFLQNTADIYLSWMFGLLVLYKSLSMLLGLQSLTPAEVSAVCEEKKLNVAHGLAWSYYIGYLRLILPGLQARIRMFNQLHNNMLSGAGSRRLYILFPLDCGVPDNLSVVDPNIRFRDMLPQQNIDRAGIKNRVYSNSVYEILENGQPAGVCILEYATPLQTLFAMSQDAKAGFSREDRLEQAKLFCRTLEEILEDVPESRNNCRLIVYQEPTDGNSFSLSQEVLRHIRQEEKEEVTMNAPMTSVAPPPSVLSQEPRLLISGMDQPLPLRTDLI
As to the kind of experiment: STING expression level in immune cells inside tumor by flow cytometry. The format is in vivo. The note with it: compound alone, FIG. 28. The protocol: As described above, after euthanasia with carbon dioxide, the tumor was extracted, TIL was separated, and intracellular STING staining was performed in the same manner as in <Example 6>.
Background: A flow cytometer gives signals particle by particle.

Data set [2] concerns the target STING (Homo sapiens, UniProt Q86WV6). As to the kind of experiment: CETSA and ITDRF in A431 cells, STING. It counts as binding. Also on record: endogenous in cells; host or cells: A431. The source says:
(§1) It was verified whether the oxopiperazine derivative of the present invention was bound to STING among STING and TRIM29 to inhibit interaction thereof, based on the compound of Formula 1, by the cellular thermal shift assay (CETSA) and the isothermal dose response fingerprint (ITDRF) which were major technologies for verifying the interaction between small molecule compounds and target proteins. (D. M. Molinaetal., Science 2013, 341, 84-87.)
(§2) To verify the target of the compound of Formula 1 using the CETSA technique, the human A431 cell lines and mouse Raw264.7 cell lines were seeded on a 100-mm or 150-mm culture dish and cultured for one day. […] Afterwards, centrifugation was performed at 20000 g for 20 minutes at 4° C., the supernatant was transferred to a new container, and each concentration was measured by using the Micro BCA™ protein assay kit (ThermoFisher) according to the protocol of the manufacturer. The concentration of each sample was equally adjusted by using the RIPA lysis buffer, the 5× SDS-PAGE loading buffer (Biosesang) was added according to the ratio of the manufacturer, and the resultant was treated at 95° C. for 5 minutes and analyzed by using the Western blotting method described above.

Data set [3] deals with bone-marrow derived dendritic cells (BMDC) and OT-1 T cells. As to the kind of experiment: BMDC cross-antigen presentation with killed MC38 or MC38-OVA tumor cells. The format is cell-based, mouse. The note with it: with cGAMP, FIG. 19. As to the method:
In the same manner as <Experimental Example 7> above, mouse bone marrow-derived cells were obtained and differentiated. On the sixth day, 2×10^6 dendritic cells (BMDC) were co-cultured with 2×10^6 of MC38 or MC38-OVA tumor cells frozen-thawed three times and treated with cGAMP and/or the compound of Formula 1 in various concentrations. The cells were cultured at 37° C. in a 5% CO2 incubator for 24 hours, and then flow cytometry of dendritic cell activation markers (CD80, CD86, MHC II) was performed. Then, 5×10^4 cells were incubated with 2×10^5 CFSE-labeled OT-1 T cells (OVA-specific CD8^+ T cells) to observe OT-1 T cell proliferation.

For data set [4], the system named is STING mRNA. Nature of the data set: qRT-PCR of STING mRNA in Raw264.7 cells. It counts as cell-based, mouse. The note with it: FIG. 17. Background: Real-time PCR tracks product formation cycle by cycle.
Data set [5] has as its target T2, TRIM29 (Homo sapiens, UniProt Q14134).
T2 construct: endogenous in cells; host or cells: A431
T2 sequence (Q14134 1-588): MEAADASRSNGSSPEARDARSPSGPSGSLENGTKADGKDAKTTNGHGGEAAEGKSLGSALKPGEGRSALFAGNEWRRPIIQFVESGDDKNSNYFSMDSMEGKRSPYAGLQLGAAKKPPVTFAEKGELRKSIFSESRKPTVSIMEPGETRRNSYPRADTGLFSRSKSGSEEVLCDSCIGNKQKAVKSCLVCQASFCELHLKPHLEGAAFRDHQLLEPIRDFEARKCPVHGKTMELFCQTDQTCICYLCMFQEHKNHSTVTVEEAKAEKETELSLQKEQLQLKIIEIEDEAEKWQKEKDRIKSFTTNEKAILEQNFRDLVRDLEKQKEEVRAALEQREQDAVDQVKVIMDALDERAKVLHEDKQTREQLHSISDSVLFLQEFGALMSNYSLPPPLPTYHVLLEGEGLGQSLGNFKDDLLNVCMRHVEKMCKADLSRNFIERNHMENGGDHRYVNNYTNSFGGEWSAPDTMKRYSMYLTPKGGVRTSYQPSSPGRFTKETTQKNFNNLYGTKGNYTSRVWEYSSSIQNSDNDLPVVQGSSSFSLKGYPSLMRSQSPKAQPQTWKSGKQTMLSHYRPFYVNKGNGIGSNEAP
Nature of the data set: ITDRF in A431 cells, TRIM29. It counts as binding. The note with it: FIG. 12.
Text: as §1, §2

The target of data set [6] is T1, STING. As to the kind of experiment: CETSA and ITDRF in Raw264.7 cells, STING. The format is binding. The arrangement: endogenous in cells; host or cells: Raw264.7.
Text: as §1, §2

The nature of data set [7]: Body weight and toxicity signals in CT26 syngeneic mouse model. The format is in vivo. Particulars: treated individually or in combination, FIG. 24. As to the method: 2×10^5 CT26 cell lines were prepared in 50 μL culture medium and subcutaneously injected. […] The cGAMP solution was manufactured with a final composition of PEG400:distilled water=40:60, and 20 μL was injected each time. The solution of the compound of Formula 1 was manufactured with the composition of DMSO:PEG400:distilled water=2:40:58, and 20 μL was injected each time. The cGAMP solution was injected once every two days, four times in total, and the solution of the compound of Formula 1 was injected once every four days, two times in total, starting with the second administration of cGAMP. The size of the tumor was measured by using calipers every two days, and the volume thereof was calculated as (length×width×height/2). The body weight of the mice was also measured every two days.

Chain of STING (Homo sapiens, UniProt Q86WV6) (Q86WV6 whole entry H232R): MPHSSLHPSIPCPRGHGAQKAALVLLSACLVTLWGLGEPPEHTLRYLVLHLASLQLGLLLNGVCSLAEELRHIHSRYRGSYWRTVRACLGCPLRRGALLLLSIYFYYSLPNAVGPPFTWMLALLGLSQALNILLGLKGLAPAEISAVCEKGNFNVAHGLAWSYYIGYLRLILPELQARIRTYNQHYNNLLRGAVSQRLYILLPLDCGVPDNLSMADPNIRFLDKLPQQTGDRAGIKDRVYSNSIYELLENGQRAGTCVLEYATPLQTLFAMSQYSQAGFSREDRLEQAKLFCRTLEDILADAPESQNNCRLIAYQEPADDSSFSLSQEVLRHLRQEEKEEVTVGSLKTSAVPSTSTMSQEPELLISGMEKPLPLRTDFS

Turning to `COc1ccc(CC2=CN(c3ccc(C(=O)NC[C@H]4CCCO4)cc3[N+](=O)[O-])[C@H](C(C)C)C(=O)N2Cc2ccc(O)cc2)cc1` [Formula 1, 4-((R)-4-(4-hydroxybenzyl)-2-isopropyl-5-(4-methoxybenzyl)-3-oxo-3,4-dihydropyrazin-1 (2H)-yl)-3-nitro-N-(((R)-tetrahydrofuran-2-yl)methyl)benzamide], the “amount of STING in tumor-associated macrophages (TAM) and dendritic cells (DC)” value in data set [1] (tumor extracted one day after final treatment) was “increased”. Also, the “effect of increasing STING in M1 compared to M2 macrophages” value in data set [1] is “more noticeably exhibited in M1 macrophages”. Also, the “CETSA thermal stability of STING” value in data set [2] (FIG. 11) and in data set [6] (FIG. 13) was “induced thermal destabilization by selective binding only to STING” in each case. Also, the “ITDRF thermal stability of STING” value in data set [2] (FIG. 12) and in data set [6] (FIG. 14) was “reduced the thermal stability of STING at high concentrations in a concentration-dependent manner” in each case. Moreover, the “OT-1 T cell proliferation (cross-antigen presentation)” value in data set [3] (MC38 control group) is reported as “such an effect did not occur at all”; in data set [3] (killed MC38-OVA cells, concentration-dependent) it was “promoted cell proliferation”. Moreover, in data set [4], the “relation of STING increase to RNA transcription (STING mRNA)” value is on record as “not related to RNA transcription”. In data set [5], the “ITDRF effect on TRIM29” value is on record as “without affecting TRIM29”. Further, the “body weight change or signal of toxicity” value in data set [7] was “significant change in body weight or signal of toxicity was not observed”.
